This is an account of results in US10968214B2, “KRas G12C inhibitors” (Eli Lilly and Company, priority 2018, dated 2021).

Molecules are shown by their SMILES. Where two headings read alike, the source gives them in different places. Bounds are passed on as bounds.

One test deals with KRas G12C (Homo sapiens, UniProt P01116, G12C). Briefly: KRas G12C Probe Occupancy TR-FRET Assay. The class given is binding. Conditions: 60 min incubation of inhibitor with KRas G12C; read-out: TR-FRET 60 min. How it is done: Inhibitors are tested in dose response format from 10 mM stocks in 100% DMSO. The Labycyte Echo® 555 is used to dilute and transfer 100 nL per well containing a 10 point, 2.8-fold serial dilution to an assay plate. […] The signal ratio (em at 665/em at 615) is converted to percent inhibition using the following equation: % Inhibition=100−[(Test Compound Signal−Median Minimum Signal)/(Median Maximum Signal−Median Minimum Signal)×100].
Sequence of KRas G12C (P01116 1-188 isoform P01116-2 G12C): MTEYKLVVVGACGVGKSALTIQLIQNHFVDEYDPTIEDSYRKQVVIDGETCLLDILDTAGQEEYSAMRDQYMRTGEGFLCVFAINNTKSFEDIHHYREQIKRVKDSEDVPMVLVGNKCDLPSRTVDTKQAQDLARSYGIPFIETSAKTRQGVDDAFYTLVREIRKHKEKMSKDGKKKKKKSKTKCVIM
For orientation: Time-resolved FRET reads energy transfer from a long-lived donor to a nearby acceptor.

The test system of test [1] is phosphorylation of p-ERK1/2 in H358 cells. Briefly: H358 Cellular Phospho-ERK AlphaLISA. The class given is cell-based, Human. The following applies: read-out: pERK. How it is done: This assay is used to measure the ability of test compounds to inhibit the phosphorylation of p-ERK1/2, a downstream effector of KRas in Human lung cancer cells H358 (ATCC CRL-5807). Briefly, the AlphaLISA® SureFire® Ultra™ p-ERK 1/2 (Thr202/Tyr204) assay is a sandwich immunoassay for quantitative detection of phospho-ERK 1/2 (phosphorylated on Thr202/Tyr204 in ERK1, or Thr185/Tyr187 in ERK2) in cellular lysates using Alpha Technology (Perkin Elmer Cat #ALSU-PERK-A50K).
H358 cells are plated at 40K cells per well in 100 μL media (RPMI 1640, GIBCO Cat #22400-071) containing 10% FBS (GIBCO Cat #: 10082-147) in a 96 well plate (Costar #3596) and are incubated overnight in humid trays at 37° C., 5% CO2. The next morning, 10 μL of serially-diluted (3-fold) test compounds (50 μM top concentration) and 10 uL of controls (Maximum signal wells: 5% DMSO and Minimum signal wells: 2 μM of N-(3-{3-cyclopropyl-5-[(2-fluoro-4-iodophenyl)amino]-6,8-dimethyl-2,4,7-trioxo-3,4,6,7-tetrahydropyrido[4,3-D]pyrimidin-1(2H)-yl}phenyl)acetamide (trametinib, as a positive control) are added to the cell plate and incubated for 2 hr in humid trays at 37° C./5% CO2. Lysis Buffer is prepared at RT containing a protease and phosphatase inhibitor cocktail. Culture medium is removed by inverting and shaking the cell plate in the sink and then blotting onto a paper towel. Lysis buffer is added to the cell plate (50 μL per well) and the plate is incubated at RT for 10 min on a shaker. For p-ERK detection, acceptor beads are diluted into a suspension mixture with buffer. Using a Starlett liquid handler, 5 μL of acceptor beads and 2 μL of cell lysate are transferred as a single-step in-tip dilution to a 384 well assay plate. The assay plate is sealed with foil and is incubated at RT for 2 hrs. Donor beads are diluted into a suspension mixture with buffer. Using the Starlet, 5 μL of donor beads are added to the assay plate that is then sealed, wrapped with foil. The plate is incubated at RT for 2 hrs in the dark. The assay plate is then read on an EnVision™ Plate Reader (Perkin Elmer) using a luminescence program.
The signal is converted to percent inhibition using the following equation: % Inhibition=100−[(Test Compound Signal−Median Minimum Signal)/(Median Maximum Signal−Median Min Signal)×100]. The Maximum signal is a control well without inhibitor.
(Alpha assays give light when donor and acceptor beads are brought close together.)

In test [2] the target is T1, constitutive RAS GTPAse activity in H358 cells (Homo sapiens, UniProt P01116, G12C).
T1 construct: host or cells: H358 human lung cancer cells
T1 sequence (P01116 1-188 isoform P01116-2 G12C): as above
Briefly: H358 Cellular Active RAS GTPase ELISA. In kind it is cell-based. Conditions: 2 hr, read-out: RAS-GTP. From the text:
This assay is used to measure the ability of test compounds to inhibit constitutive RAS GTPAse activity in human lung cancer cells H358 (ATCC CRL-5807). The RAS GTPase ELISA kit (Active Motif Cat #52097) contains a 96-well plate pre-coated with glutathione in order to capture a kit-supplied GST-Raf-RBD protein. Activated RAS (GTP-bound) in cell extracts specifically bind to the Raf-RBD. Bound RAS is detected with a primary antibody that recognizes human KRas. A secondary antibody conjugated with HRP recognizes the primary antibody and a development solution provides a chemiluminescent readout.
H358 cells are plated at 80,000 cells/well in 90 μL serum free media (RPMI 1640, GIBCO) and incubated overnight at 37° C./5% CO2. The next morning, 10 μL of serially-diluted (3-fold) test compounds (500 μM top concentration) and 10 μL of controls (Maximum signal wells: 5% DMSO and Minimum signal wells: 500 μM LSN3429410 as an inhibitor) are added to the cell plate and incubated for 2 hr at 37° C./5% CO2. Complete Lysis/Binding Buffer is prepared containing Protease Inhibitor cocktail and GST-Raf-RBD and stored on ice. One hour before cell plate incubation is completed, 50 μL of GST-Raf-RBD is diluted in lysis/binding buffer, and buffer is added to the ELISA assay plate and which is incubated for 1 hour at 4° C. with gently rocking. After 2 hr, the cells are washed with 100 μL ice-cold PBS and lysed with 100 μL lysis/binding buffer. The cell plate is shaken for 10 min at RT. The cell plate is then centrifuged at 1500 rpm for 10 min at RT. During this time, 1× Wash Buffer is prepared at RT and then is used to wash (3×100 μL) the GST-Raf-RBD coated assay plate. After washing, 50 μL of cell lysate is added to the GST-Raf-RBD coated assay plate and incubated for 1 hour at RT with gentle shaking. During this incubation period, 1× Antibody Binding Buffer is prepared and brought to RT. The assay plate is washed 3×100 μL with 1× Wash Buffer and then 50 μL of Primary Antibody (diluted 1:500 in 1× Antibody Binding buffer) is added. The plate is incubated for 1 hour at RT. The assay plate is washed 3×100 μl with 1× Wash Buffer and then 50 μL of Secondary Antibody (diluted 1:5000 in 1× Antibody Binding buffer) is added and incubated for 1 hour at RT. The assay plate is washed 4×100 μL with 1× Wash buffer and then 50 μL of chemiluminescent working solution is added at RT. The assay plate is then read on an EnVision™ Plate Reader (Perkin Elmer) using a luminescence program.
The signal is converted to percent inhibition using the following equation: % Inhibition=100−[(Test Compound Signal−Median Minimum Signal)/(Median Maximum Signal−Median Minimum Signal)×100]. The Maximum signal is a control well without inhibitor.
(In general: ELISA stands for enzyme-linked immunosorbent assay.)

A further test relates to EL3187 (PDX). Briefly: Anti-tumor growth activity, EL3187 lung PDX. In kind it is in vivo. The following applies: EL3187 Lung PDX; Afatinib 25 mg/kg QDx28.

In the case of `C=CC(=O)N1CCN(c2ncnc3c(F)c(-c4c(F)cc(F)c5sc(N)nc45)c(Cl)cc23)CC1` (single isomer, unassigned) [Example 6a, 1-{4-[7-(2-Amino-5,7-difluoro-1,3-benzothiazol-4-yl)-6-chloro-8-fluoroquinazolin-4-yl]piperazin-1-yl}prop-2-en-1-one], the IC50 on KRas G12C was under 18.9 nM; in test [1] (2 hr), 3.94 nM; in test [2], 11.7 nM.

Consider `C=CC(=O)N1CCN(c2ncnc3c(F)c(-c4c(F)cc(F)c5sc(N)nc45)c(Cl)cc23)CC1` (single isomer, unassigned) [Example 6b, 1-{4-[7-(2-Amino-5,7-difluoro-1,3-benzothiazol-4-yl)-6-chloro-8-fluoroquinazolin-4-yl]piperazin-1-yl}prop-2-en-1-one], for which the results for the IC50 (at KRas G12C; in test [1] (2 hr); in test [2]) were 449 nM, 256 nM and 743 nM, respectively.

Regarding `CN(C)C/C=C/C(=O)Nc1cc2c(Nc3ccc(F)c(Cl)c3)ncnc2cc1O[C@H]1CCOC1` [Afatinib, afatinib, reference compound], the “In Vivo Anti-Tumor Activities” value in the test with EL3187 (PDX) was 17.1.

With `C=CC(=O)N1CCN(c2ncnc3c(Cl)c(-c4ccc(F)c5sc(N)nc45)c(Cl)cc23)CC1` [Example 2, 1-{4-[7-(2-Amino-7-fluoro-1,3-benzothiazol-4-yl)-6,8-dichloroquinazolin-4-yl]piperazin-1-yl}prop-2-en-1-one], the IC50 was found to be 47.6 nM on KRas G12C; 19.4 nM in test [1] (Homo sapiens, NCI-H358, 2 h); 148 nM in test [2].

As to `C=CC(=O)N1CCN(c2ncnc3c(F)c(-c4cc(F)c(F)c5sc(N)nc45)c(Cl)cc23)CC1` [Example 3, 1-{4-[7-(2-Amino-6,7-difluoro-1,3-benzothiazol-4-yl)-6-chloro-8-fluoroquinazolin-4-yl]piperazin-1-yl}prop-2-en-1-one], the IC50 amounted to 20.9 nM at KRas G12C; 15.3 nM in test [1] (Homo sapiens, NCI-H358, 2 h); 166 nM in test [2].

Turning to `C=CC(=O)N1CCN(c2ncnc3cc(-c4ccc(F)c5sc(N)nc45)c(Cl)cc23)CC1` [Example 4, 1-{4-[7-(2-Amino-7-fluoro-1,3-benzothiazol-4-yl)-6-chloroquinazolin-4-yl]piperazin-1-yl}prop-2-en-1-one], the IC50 on KRas G12C is 25 nM; in test [1] (Homo sapiens, NCI-H358, 2 h) it was 27.1 nM; in test [2], 234 nM.

Take `C=CC(=O)N1CCN(c2ncnc3c(F)c(-c4cccc5sc(N)nc45)c(Cl)cc23)CC1` [Example 5, 1-{4-[7-(2-Amino-1,3-benzothiazol-4-yl)-6-chloro-8-fluoroquinazolin-4-yl]piperazin-1-yl}prop-2-en-1-one]: the IC50 on KRas G12C was 27.8 nM; in test [1] (Homo sapiens, NCI-H358, 2 h), 9.73 nM; in test [2] it was 104 nM.

Take `C=CC(=O)N1CCN(c2ncnc3c(F)c(-c4c(O)cccc4F)c(Cl)cc23)CC1` [reference compound]: the IC50 in test [1] (Homo sapiens, NCI-H358, 2 h) was 1600 nM; in test [2] it was 3780 nM.

For the compound `C=CC(=O)N1CCN(c2ncnc3c(F)c(-c4cc(O)cc5ccccc45)c(Cl)cc23)CC1` [reference compound], the IC50 at KRas G12C worked out at 45.2 nM; in test [1] (Homo sapiens, NCI-H358, 2 h), 204 nM; in test [2] it was 392 nM.

For the compound `C=CC(=O)N1CCN(c2ncnc3cc(-c4ccc5oc(N)nc5c4)c(Cl)cc23)CC1` [reference compound], the IC50 on KRas G12C is 82200 nM; in test [1] (Homo sapiens, NCI-H358, 2 h), over 5000 nM; in test [2], over 50000 nM.
